US20240360114A1 (SIRONAX LTD., priority 2021, published 2024)

tested on: HT-1080 cells; assay: HT-1080 cell viability assay (ferroptosis induced by RSL3, Cell Titer-Glo); type: cell-based; details: Homo sapiens, HT-1080, 20 h, ferroptosis inducer RSL3, 20 hours, ferroptosis inhibitory activity, Table 2
Protocol: Example 2. Determination of EC50 Values in HT-1080 Cell Viability Assay
HT-1080 (ATCC, CCL-121) cells (6000 in 100 μl) were seeded in 96-well plates (Corning) and cultured in a 37° C. incubator with a humidified atmosphere of 5% CO2 for overnight. Cells were then treated with ferroptosis inducer RSL3 (TargetMol) and a 3-fold, 10-point serial dilution series of compounds with 1.1 μM as the highest concentration, for 20 hours. Cell viability was assessed using the Cell Titer-Glo Kit (Promega). The luminescence intensity was measured with a microplate reader (Envision, PerkinElmer), and cell viability was calculated by normalizing the data to untreated controls. The EC50 values of the compounds (e.g., Compounds 1-573 and 574-661) were calculated in GraphPad Prism (GraphPad Software, Inc., San Diego, CA, USA). The curves were fitted using a non-linear regression model with a sigmoidal dose response.

EC50	Structure (SMILES)
0.1 to 100 nM	NC1CCC(Nc2ccc3cc(N4CCC(C(F)(F)F)CC4)cnc3c2)CC1 (stereo not shown) [Compound 572, N1-(3-(4-(trifluoromethyl)piperidin-1-yl)quinolin-7-yl)cyclohexane-1,4-diamine]
0.1 to 100 nM	Cc1cc(N2CCC(C(F)(F)F)CC2)ccc1NCCCC[C@H]1CC[C@H](N)CC1 [Compound 447, N-(4-((1r,4s)-4-aminocyclohexyl)butyl)-2-methyl-4-(4-(trifluoromethyl)piperidin-1-yl)aniline]
0.1 to 100 nM	Cc1cc(N2CCC(C(F)(F)F)CC2)cc(C)c1NCC[C@H]1CC[C@H](N)CC1 [Compound 391, N-(2-((1r,4r)-4-aminocyclohexyl)ethyl)-2,6-dimethyl-4-(4-(trifluoromethyl)piperidin-1-yl) aniline]
0.1 to 100 nM	Cc1nc(N2C[C@@H](C)N(CC(F)(F)F)[C@@H](C)C2)ccc1NC1CCC(N)CC1 (stereo partly shown) [Compound 542]
0.1 to 100 nM	Cc1nc(N2CCSCC2)ccc1NC1CC2(CC(N)C2)C1 (stereo not shown) [Compound 569, N^2-(2-methyl-6-thiomorpholinopyridin-3-yl) spiro[3.3]heptane-2,6-diamine]
0.1 to 100 nM	CC1CN(c2ccc(NC3C4CC5CC3CC(N)(C5)C4)cc2)CC(C)O1 (stereo not shown) [Compound 421A, N^4-(4-(2,6-dimethylmorpholino)phenyl)adamantane-1,4-diamine]

Continued, compound first:

Structure (SMILES)	EC50
Cc1cc(N2CCC(C(F)(F)F)CC2)nc(F)c1NC1CCC(CN)CC1 (stereo not shown) [Compound 22, N-(4-(aminomethyl)cyclohexyl)-2-fluoro-4-methyl-6-(4-(trifluoromethyl)piperidin-1-yl)pyridin-3-amine]	100 to 1000 nM
CC(C)(C)c1ccc(NC2CCC(CN)C2)cc1 (stereo not shown) [Compound 241, N-(3-(aminomethyl)cyclopentyl)-4-(tert-butyl)aniline]	0.1 to 100 nM
CC1(C)CCC(c2ccc(NC3CCC(N)CC3)cc2)CC1 (single isomer, unassigned) [Compound 120A, N1-(4-(4,4-dimethylcyclohexyl)phenyl)cyclohexane-1,4-diamine]	0.1 to 100 nM
CC(C)(C)c1ccc(N[C@H]2CC[C@H](N)CC2)cc1 [Compound 197, (1r,4r)-N1-(4-(tert-butyl)phenyl)cyclohexane-1,4-diamine]	0.1 to 100 nM
CC1(C)CCC(c2ccc(NC3CCC(CN)CC3)cc2)CC1 (stereo not shown) [Compound 78, N-(4-(aminomethyl)cyclohexyl)-4-(4,4-dimethylcyclohexyl)aniline]	0.1 to 100 nM
CC(C)C1CCN(c2ncc(NC3CCC(N)CC3)cn2)CC1 (stereo not shown) [Compound 34A, N1-(2-(4-isopropylpiperidin-1-yl)pyrimidin-5-yl)cyclohexane-1,4-diamine]	0.1 to 100 nM
Cc1ccc(NC2CCC(N)CC2)cc1 (stereo not shown) [Compound 128, N1-(p-tolyl)cyclohexane-1,4-diamine]	100 to 1000 nM
CC(C)C1CCN(c2ncc(NC3C4CC5CC3CC(N)(C5)C4)cn2)CC1 (stereo not shown) [Compound 368, N4-(2-(4-isopropylpiperidin-1-yl)pyrimidin-5-yl)adamantane-1,4-diamine]	0.1 to 100 nM
Cc1cc(N2CCC(C)(C)CC2)ccc1NC[C@H]1CC[C@H](N)CC1 [Compound 382, N-(((1r,4r)-4-aminocyclohexyl)methyl)-4-(4,4-dimethylpiperidin-1-yl)-2-methylaniline]	0.1 to 100 nM
CC(C)(CN)Nc1ccc(C(C)(C)C)cc1 [Compound 229]	1000 to 10000 nM
CC(C)C1CCN(c2ncc(NC3CC(CN)C3)cn2)CC1 (stereo not shown) [Compound 49, N-(3-(aminomethyl)cyclobutyl)-2-(4-isopropylpiperidin-1-yl)pyrimidin-5-amine]	0.1 to 100 nM
CC(C)(C)c1ccc(NCCOCCN)cc1 [Compound 224, N-(2-(2-aminoethoxy)ethyl)-4-(tert-butyl)aniline]	100 to 1000 nM
CC1(C)CCC(C)(C)c2cc(NC3CCC(N)CC3)ccc21 (stereo not shown) [Compound 265, N1-(5,5,8,8-tetramethyl-5,6,7,8-tetrahydronaphthalen-2-yl)cyclohexane-1,4-diamine]	0.1 to 100 nM
CC1(C)CCC(c2ccc(NC3CCCC(CN)CC3)cc2)CC1 (stereo not shown) [Compound 85, 4-(aminomethyl)-N-(4-(4,4-dimethylcyclohexyl)phenyl)cycloheptan-1-amine]	0.1 to 100 nM
CCCCc1ccc(NC2CCC(N)CC2)cc1 (stereo not shown) [Compound 137, N1-(4-butylphenyl)cyclohexane-1,4-diamine]	0.1 to 100 nM
CC(C)(C)c1ccc(NC2CCC(N)CC2)c(F)c1 (stereo not shown) [Compound 190, N1-(4-(tert-butyl)-2-fluorophenyl)cyclohexane-1,4-diamine]	100 to 1000 nM
C[C@@H](O)[C@H](N)C(=O)NC1CCC(Nc2ccc(C(C)(C)C)cc2)CC1 (stereo partly drawn) [Compound 214, (2S, 3R)-2-amino-N-(4-((4-(tert-butyl)phenyl)amino)cyclohexyl)-3-hydroxybutanamide]	0.1 to 100 nM
CNCC1CC(Nc2ccc(C(C)(C)C)cc2)C1 (stereo not shown) [Compound 237, 4-(tert-butyl)-N-(3-((methylamino)methyl)cyclobutyl)aniline]	1000 to 10000 nM
CC(C)(C)c1ccc(NC2CCC(NCCO)CC2)cc1 (stereo not shown) [Compound 230, 2-((4-((4-(tert-butyl)phenyl)amino)cyclohexyl)amino)ethan-1-ol]	0.1 to 100 nM
CN(C)CCCN1CCC(Nc2ccc(C3CCC(C)(C)CC3)cc2)CC1=O (stereo not shown) [Compound 247, 1-(3-(dimethylamino)propyl)-4-((4-(4,4-dimethylcyclohexyl)phenyl)amino)piperidin-2-one]	0.1 to 100 nM
CC(C)(C)Nc1ccc(C2CCNCC2)cc1 [Compound 207, N-(tert-butyl)-4-(piperidin-4-yl)aniline]	1000 to 10000 nM
CC(C)(C)c1ccc(NC2CCC(CNC(=O)C3CNC(=O)C3)CC2)cc1 (single isomer, unassigned) [Compound 144A, N-((4-((4-(tert-butyl)phenyl)amino)cyclohexyl)methyl)-5-oxopyrrolidine-3-carboxamide]	100 to 1000 nM

same assay, conditions: Homo sapiens, HT-1080, 20 h, ferroptosis inducer RSL3, 20 hours, ferroptosis inhibitory activity, Table 3

EC50	Structure (SMILES)
0.1 to 100 nM	Cc1nc(N2CCC3(CCOCC3)CC2)ccc1NC[C@H]1CC[C@H](N)CC1 [Compound 582, N-(((1r,4r)-4-aminocyclohexyl)methyl)-2-methyl-6-(3-oxa-9-azaspiro [5.5]undecan-9-yl)pyridin-3-amine]
0.1 to 100 nM	Cc1nc(N2CCN(C)C(C(F)(F)F)C2)ccc1NC1CC2(CC(N)C2)C1 (stereo not shown) [Compound 606, N2-(2-methyl-6-(4-methyl-3-(trifluoromethyl)piperazin-1-yl)pyridin-3-yl)spiro[3.3]heptane-2,6-diamine]
0.1 to 100 nM	Cc1nc(N2CCOC3(CCC3)C2)ccc1NC1CC2(CC(N)C2)C1 (stereo not shown) [Compound 626, N^2-(2-methyl-6-(5-oxa-8-azaspiro[3.5]nonan-8-yl)pyridin-3-yl)spiro[3.3]heptane-2,6-diamine]
0.1 to 100 nM	Cc1nc(N2CC(C)OC(C(F)(F)F)C2)ccc1NC1CC2(CC(N)C2)C1 (stereo not shown) [Compound 588]
0.1 to 100 nM	CN(CC(F)(F)F)c1ccc2cc(NC3CC(N)C3)ccc2n1 (stereo not shown) [Compound 655, N^6-(3-aminocyclobutyl)-N^2-methyl-N^2-(2,2,2-trifluoroethyl) quinoline-2,6-diamine]
0.1 to 100 nM	Cc1nc(N2CC(C)N(CC(F)(F)F)C(C)C2)c(F)cc1NC1CC2(CC(N)C2)C1 (stereo not shown) [Compound 641, N^2-(6-(3,5-dimethyl-4-(2,2,2-trifluoroethyl)piperazin-1-yl)-5-fluoro-2-methylpyridin-3-yl)spiro [3.3]heptane-2,6-diamine]
